Where a name gives a salt, the structure may show the parent alone. Read-outs that look alike come from different tables or passages of the source.
Columns and labels:
[1] = Relative Molar Extinction Coefficients (absorbance of dye formed with N-ethylanilinopropanamine, POD and H2O2); type: physicochemical; conditions: pH 6.5 phosphate buffer, same molar concentration, coupled with N-ethylanilinopropanamine hydrochloride
Experimental: The relative absorbance of MBTH and sodium carboxy MBTH, an illustrative soluble hydrazone compound, was measured and compared. Since each compound was measured at the same molar concentration, the molar extinction was proportional to the […].
Each sample contained the following:
1 mL phosphate buffer, 0.035M, pH 6.5
10 μL R-MBTH solution, 10 mM, where R=H or COONa
100 μL N-ethylanilinopropanamine hydrochloride, 10 mM
10 μL POD solution, ~120 IU/mL
A 1-mL aliquot of each solution was transferred to a cuvette and diluted with an addition 2 mL of phosphate buffer solution.

[2] = Heat Stability on coated polyester fabric at 120° C.; type: physicochemical; conditions: for Density: 120° C., absorbance at 310 nm
Experimental: In order to evaluate the heat stability of sodium carboxy MBTH, 38 mg. of either MBTH.HCl or NaCMBTH was added to 1.2 mL water to dissolve. Then, 0.75 mL of this solution was added to 21 mg Hydrisel SX 660, a commercial surfactant and […] 0.1% ACP polymer (ISP Technologies), prepared in 70% isopropanol solution. Each solution was coated onto a 4-inch wide polyester fabric in a thin layer and dried at 40° C. for fifteen minutes. The coated fabric was sealed in an airtight foil bag and stored at 4° C.
Small samples (2 cm×5 cm) of each coated fabric were placed into a 120° C. oven and removed at appropriate intervals. The heat-stressed fabric samples were assayed spectrophotometrically.
The fabric samples were placed into a tared test tube and weighed. Ten mL of 20 mM phosphate buffer, pH 7.0, was added. The tubes were capped and agitated for ten minutes at room temperature. Absorbance at 310 nm was read for each sample and the values were compared against a standard curve.

[3] = Solubility Comparison in water; type: physicochemical; conditions: for Water added: to dissolve 100 mg completely
Experimental: (§1) The solubility of MBTH.HCl was compared with that of NaCMBTH. One hundred mg samples of each of MBTH.HCl (Aldrich) and NaCMBTH were placed into test tubes. Water was added in 50 μ-L aliquots until the sample completely dissolved.

[4] = Solubility Comparison in pH 7 buffer; type: physicochemical; conditions: for solubility: 0.1m phosphate buffer, aqueous buffer, pH 7 buffer (phosphate, 0.1M); for Water added: to dissolve 100 mg completely, pH 7 buffer (phosphate, 0.1M) instead of water
Experimental: as §1
An identical experiment was performed using pH 7 buffer (phosphate, 0.1M) instead of water.

[5] = cited from earlier work

Row | Absorbance at 600 nm [1] | Density ([2]; time 0) | Density ([2]; time 4 (hours)) | Density ([2]; time 6 (hours)) | Density ([2]; time 23 (hours)) | heat stability ([2]; after 23 hours at 120° C.) | solubility [3] | Water added [3] | solubility [4] | Water added [4] | heat stability ([2]; after only two hours at 120° C.) | SMILES | heat stability ([2]; after six hours at 120° C.) | water solubility of the dye formed in the color reactions [5] | heat stability ([5]; dry form, 60° C., as noted in U.S. Pat. No. 4,101,381) | usable pH (autoxidative color reaction otherwise) ([5]; pH, absence of hydrogen peroxide) | solubility in water compared with MBTH ([5]; U.S. Pat. No. 4,101,381)
1 | 0.2115 absorbance units | 75.4 mg/m^2 | 50.4 mg/m^2 | 51.2 mg/m^2 | 50.3 mg/m^2 | retains most of its activity | 87 mg/mL | 1150 µL | 174 mg/mL | 575 µL |  | Cn1c(=NN)sc2cc(C(=O)O)ccc21 [NaCMBTH, 3-methylbenzothiazolone-2-hydrazone-6-carboxylic acid, sodium salt] | still viable |  |  |  | 
2 | 0.1513 absorbance units | 114.7 mg/m^2 | 10.2 mg/m^2 |  |  |  | 34 mg/mL | 2900 µL | < 10 mg/mL | > 9600 µL | effectively decomposed | Cn1c(=NN)sc2ccccc21 [MBTH.HCl, 3-methyl benzothiazolone-2-hydrazone HCL] |  | relatively poor water solubility | insufficiently stable | below 7 | 
3 |  |  |  |  |  |  |  |  |  |  |  | Cn1c(=NNS(=O)(=O)O)sc2ccccc21 [3-methyl-2-sulfonyl-benzothiazolononhydrazone] |  |  |  |  | much poorer solubility in water than MBTH
